These results are taken from ChEMBL document CHEMBL1201862, “PubChem BioAssay data set” (2004).

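Five compound concentrations were applied to cells in 96-well plates for 48 hours; endpoints were derived by simple linear interpolation of the resulting dose-response curve. GI50 is the concentration that inhibits growth by half.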 The source made the active and inactive calls. Cut-off read from the data, not from the text of the source: active = GI50 up to about 1.1 µM and inactive = higher.

Common to all, as to assay: growth of human tumour cells (NCI), 48 h
Assay [1] relates to SNB-75.
The test system of assay [2] is Hs-578T.
The test system of assay [3] is SF-268.
Assay [4] concerns SNB-19.
Assay [5] has as its system K562.
For assay [6], the system named is MDA-MB-435.
Assay [7] concerns A549.
Assay [8] relates to NCI/ADR-RES.
The test system of assay [9] is HOP-62.
Assay [10] has as its system OVCAR-5.
Assay [11] concerns MCF7.
Assay [12] deals with NCI-H23.
Assay [13] concerns ACHN.
Assay [14] deals with NCI-H522.
The subject of assay [15] is MOLT-4.
Assay [16] deals with BT-549.
The test system of assay [17] is HCT-116.
The test system of assay [18] is UACC-62.
Assay [19] has as its system SF-295.
Assay [20] has as its system HL-60.

As to `[N-]=[N+]=NCC1OC(n2cnc3c(N)ncnc32)C2OC12` (stereo not given), the GI50 in [1], in [2], in [3], in assay [4], in assay [5] and in assay [6] was > 100 µM (inactive) in each case. The GI50 in assay [7], in assay [8], in assay [9], in [10], in [11] and in assay [12] was > 100 µM (inactive) throughout. The GI50 in [13], in [14], in assay [15], in [16], in assay [17] and in assay [18] was > 100 µM (inactive) each time. Also, the GI50 in assay [19] and in assay [20] was > 100 µM (inactive) in each case.

For the compound `Cc1c(/C=N/NC(=S)N2CCCCC2)c(=O)n(-c2ccccc2)n1C`, the GI50 in assay [1] was > 100 µM (inactive); in [2], 39.3 µM (inactive); in [3], 29.5 µM (inactive); in [4], 71.4 µM (inactive); in assay [5], 36.6 µM (inactive); in assay [6], > 100 µM (inactive). In addition, the GI50 in assay [7] is 55.3 µM (inactive); in [8], 28.9 µM (inactive); in [9], 88.9 µM (inactive); in assay [10] it was > 100 µM (inactive); in assay [11] it was 43.9 µM (inactive); in assay [12], > 100 µM (inactive). Moreover, the GI50 in assay [13] was 32.4 µM (inactive); in [14], 39.1 µM (inactive); in [15], 31.3 µM (inactive); in assay [16], > 100 µM (inactive); in assay [17], 57.8 µM (inactive); in assay [18], > 100 µM (inactive). The GI50 in assay [19] is 40.7 µM (inactive); in assay [20] it was 14 µM (inactive).

For the compound `COc1cccc2c1C(=O)C1=C(C2=O)C(O)CC(C)(C)O1` (stereo not given), the GI50 is > 100 µM (inactive) in assay [1]; > 100 µM (inactive) in assay [2]; 55.5 µM (inactive) in assay [3]; 76.7 µM (inactive) in [4]; 21 µM (inactive) in assay [5]; 20 µM (inactive) in [6]. Also, the GI50 was 32.1 µM (inactive) in [7]; 28.7 µM (inactive) in assay [8]; > 100 µM (inactive) in assay [9]; 58.9 µM (inactive) in assay [10]; 36.6 µM (inactive) in assay [11]; 28.5 µM (inactive) in assay [12]. In addition, the GI50 is 36.1 µM (inactive) in assay [13]; 26.2 µM (inactive) in assay [14]; 29 µM (inactive) in assay [15]; 63.7 µM (inactive) in assay [16]; 24 µM (inactive) in [17]; 25.1 µM (inactive) in [18]. Further, the GI50 is 70.3 µM (inactive) in [19] and 11.7 µM (inactive) in [20].

For `COC(=O)c1ccccc1/C=C1\Cc2ccc(C)c(C)c2C1=O`, the GI50 in assay [1] was 35.4 µM (inactive); in [2] it was 92.9 µM (inactive); in assay [3], 54.5 µM (inactive); in assay [4], 44.5 µM (inactive); in assay [5] it was > 100 µM (inactive); in assay [6], > 100 µM (inactive). For the same compound, the GI50 was > 100 µM (inactive) in [7]; > 100 µM (inactive) in assay [8]; 59.8 µM (inactive) in assay [9]; > 100 µM (inactive) in assay [10]; > 100 µM (inactive) in assay [11]; > 100 µM (inactive) in [12]. In addition, the GI50 in [13] was > 100 µM (inactive); in [14], 65.5 µM (inactive); in assay [15], > 100 µM (inactive); in assay [16] it was > 100 µM (inactive); in assay [17] it was > 100 µM (inactive); in assay [18], > 100 µM (inactive). For the same compound, the GI50 is 77.8 µM (inactive) in assay [19] and > 100 µM (inactive) in [20].

For the compound `N#Cc1c(Cl)c(C=O)c(=O)n2c1[nH]c1ccccc12`, the GI50 in assay [1] is 42.1 µM (inactive); in assay [2], 45.1 µM (inactive); in assay [3], 38.6 µM (inactive); in assay [4] it was 63.8 µM (inactive); in assay [5], 56.8 µM (inactive); in assay [6] it was 33.7 µM (inactive). In addition, the GI50 in assay [7] is > 100 µM (inactive); in [8], 28.3 µM (inactive); in assay [9], 39 µM (inactive); in assay [10], 28.4 µM (inactive); in assay [11], 33.3 µM (inactive); in assay [12] it was 42.1 µM (inactive). Further, the GI50 in assay [13] was 84.3 µM (inactive); in assay [14], 44 µM (inactive); in [15], 29 µM (inactive); in assay [16], 36.1 µM (inactive); in [17], 29.8 µM (inactive); in assay [18] it was 55.6 µM (inactive). The GI50 in assay [19] is 35.9 µM (inactive); in assay [20], 42.6 µM (inactive).

Turning to `O=C(NN=C1NCCN1)c1ccco1`, the GI50 in assay [1], in [2], in assay [3], in assay [4], in assay [5] and in [6] was > 100 µM (inactive) throughout. The GI50 in assay [7], in assay [8], in [9], in [10], in assay [11] and in [12] was > 100 µM (inactive) in each case. Moreover, the GI50 in assay [13], in [14], in assay [15], in assay [16], in assay [17] and in assay [18] was > 100 µM (inactive) each time. Further, the GI50 in [19] and in assay [20] was > 100 µM (inactive) each time.

As for `Nc1nc2cc(CNc3ccc(C(=O)NC(CCC(=O)O)C(=O)O)cc3)ccc2nc1-c1ccccc1` (stereo not given), the GI50 in assay [1], in [2], in [3], in [4], in assay [5] and in [6] was > 10 µM (inactive) in each case. The GI50 in assay [7], in assay [8], in assay [9], in assay [10], in assay [11] and in [12] was > 10 µM (inactive) throughout. Besides, the GI50 in assay [13], in [14], in assay [15], in assay [16], in assay [17] and in assay [18] was > 10 µM (inactive) throughout. For the same compound, the GI50 in assay [19] and in assay [20] was > 10 µM (inactive) each time.

As for `C/C(=N\NC(=S)N1CCN(c2ccccn2)CC1)c1cccc2cccnc12`, the GI50 in assay [1] was 13.1 µM (inactive); in assay [2], 9.08 µM (inactive); in assay [3] it was 5.08 µM (inactive); in assay [4] it was 5.78 µM (inactive); in assay [5] it was 2.46 µM (inactive); in [6] it was 6.31 µM (inactive). In addition, the GI50 in [7] was 5.25 µM (inactive); in [8] it was 3.35 µM (inactive); in assay [9] it was 6.05 µM (inactive); in assay [10], 4.9 µM (inactive); in assay [11] it was 3.6 µM (inactive); in [12], 11.5 µM (inactive). The GI50 was 4.01 µM (inactive) in assay [13]; 2.28 µM (inactive) in [14]; 3.21 µM (inactive) in assay [15]; 14.3 µM (inactive) in assay [16]; 2.39 µM (inactive) in assay [17]; 3.53 µM (inactive) in [18]. The figures for the GI50 in [19] and in assay [20] were 3.37 µM (inactive) and 0.828 µM (active), respectively.

As for `C/C1=C/C(C)CC(C)OC(=O)C(C)NC(=O)C(Cc2ccc(O)c(I)c2)N(C)C(=O)C(C)NC(=O)C(C)C1` (stereo not given), the GI50 in assay [1] was < 0.01 µM (active); in [2], < 0.01 µM (active); in assay [3] it was < 0.0166 µM (active); in assay [4], 0.0667 µM (active); in assay [5], < 0.01 µM (active); in assay [6] it was < 0.01 µM (active). The GI50 in [7] is < 0.01 µM (active); in assay [8], 0.026 µM (active); in [9], < 0.01 µM (active); in [10] it was 7.23 µM (inactive); in assay [11] it was < 0.0371 µM (active); in assay [12], 0.311 µM (active). For the same compound, the GI50 in [13] is < 0.01 µM (active); in assay [14] it was < 0.01 µM (active); in [15], < 0.0187 µM (active); in [16] it was < 0.01 µM (active); in [17], < 0.01 µM (active); in [18], < 0.0256 µM (active). The GI50 in [19] is < 0.0316 µM (active); in assay [20], < 0.01 µM (active).

On to `COc1ccc(N2C(=O)[C@H]3CC(C)c4c([nH]c5ccccc45)[C@H]3C2=O)cc1` (stereo not given in full), for which the GI50 in assay [1] was 2.03 µM (inactive); in assay [2] it was 1.88 µM (inactive); in [3], 10.3 µM (inactive); in assay [4] it was 5.66 µM (inactive); in [5], 1.15 µM (inactive); in assay [6], 0.611 µM (active). Also, the GI50 in [7] is 5.85 µM (inactive); in assay [8], 1.63 µM (inactive); in assay [9] it was 2.15 µM (inactive); in assay [10], 33.7 µM (inactive); in assay [11] it was 2.25 µM (inactive); in assay [12], 3.8 µM (inactive). Further, the GI50 in assay [13] is 6.92 µM (inactive); in assay [14] it was 1.1 µM (active); in assay [15] it was 3.78 µM (inactive); in assay [16], 8.83 µM (inactive); in assay [17], 3.37 µM (inactive); in assay [18], 1.31 µM (inactive). Besides, the values for the GI50 in [19] and in assay [20] were 1.74 µM (inactive) and 1.83 µM (inactive), respectively.
